# Tested on: cultured cardiomyocytes
# Assay: Pulsations of cultured cardiomyocytes before and after drug administration, by motion detection on moving images (drug evaluation apparatus)
# Type: cell-based
# Details: for interval / timing of the pulsations (peak interval, rhythm of the pulsations): before vs after drug administration (after a predetermined time elapses), predetermined part of the observation region
# Experimental: FIG. 24 is a block diagram illustrating a main configuration example of a drug evaluation apparatus. The drug evaluation apparatus 1300 illustrated in FIG. 24 is an apparatus that evaluates the impact (effects, side effects, and the like) of a drug using the motions of the cultured cardiomyocytes 500 to which the drug is administered.
# The imaging unit 1101 images the cultured cardiomyocytes 500 before drug administration and after drug administration.
# More specifically, the evaluation index data generating unit 1303 performs, for example, between frame images of the evaluation object image data which are the moving images of the cultured cardiomyocytes 500, motion detection (generation of motion vectors) of the cultured cardiomyocytes 500 for each of the blocks which are partial regions into which the entire region of the frame image is divided. That is, the evaluation index data generating unit 1303 performs the motion detection of each of the blocks for a predetermined duration (for a predetermined number of frames). This duration may be a time of the moving images imaged by the imaging unit 1101 or may be shorter than the time.
# The evaluation index data generating unit 1303 further obtains a motion amount (the length of the motion vector) of each of the generated motion vectors. That is, the evaluation index data generating unit 1303 generates the motion amounts of each of the frames of each of the blocks for a predetermined duration.
# When the motion amounts of the frames of a certain block obtained by the evaluation index data generating unit 1303 are arranged in time series, for example, the graph shown in FIG. 25 is obtained. FIG. 25 is a diagram showing a form of a change in the motion amount of a certain block with respect to time obtained by the evaluation index data generating unit 1303, that is, an example of a form of the pulsations of cells.
# In the graph of FIG. 25, the horizontal axis represents the elapsed time (the number of frames), and the vertical axis represents the motion amount (pixels/frame). A curve 1311 (before) represents the pulsations of the cultured cardiomyocytes 500 before drug administration, and a curve 1312 (after) represents the pulsations of the cultured cardiomyocytes 500 after drug administration. In addition, in the graph of FIG. 25, a waveform of a single pulsation (a contraction and a relaxation) is shown.
# The pulsations of cardiomyocytes include contractions and relaxations, and in the curve 1311 and the curve 1312, the crest formed on the left means a “contraction” operation, and the crest formed on the right means a “relaxation” operation. A point P1-1 represents the peak of the contraction of the curve 1311 (before), and a point P1-2 represents the peak of the relaxation of the curve 1311 (before). A point P2-1 represents the peak of the contraction of the curve […] (after), and a point P2-2 represents the peak of the relaxation of the curve 1312 (after).
# FIG. 31 is a diagram showing an example of forms of pulsations before and after drug administration. All the 8 graphs shown in FIG. 31 are observation results of forms (changes in the motion amount absolute value with respect to time) of pulsations of a predetermined part in an observation region of the cultured cardiomyocytes 500. The horizontal axis represents the time (sec), and the vertical axis represents the motion amount absolute value (pixcel/frame) between frames. That is, the amplitudes shown in each of the graphs represents the pulsations of the cultured cardiomyocytes 500.
# The graphs on the left of FIG. 31 represent forms of the pulsations before drug administration, and the graphs on the right represent forms of the pulsations after drug administration (after a predetermined time elapses after the administration).
# In addition, FIG. 32 is a diagram showing an example of forms of variations of the pulsations before and after drug administration. […]
# [1] = FIG. 31, before vs after drug administration
# [2] = FIG. 32, overlapped pulsations after drug administration
motion amount absolute value at the peaks [1],waveform of the relaxation (the width of the pulsation) [1],"interval / timing of the pulsations (peak interval, rhythm of the pulsations) (FIG. 31)",variations of the height of the peak in the waveform of the contraction [2],"variations of the pulsations (overlapped waveforms of repeated pulsations) (FIG. 32, before vs after drug administration)",SMILES,"variations of the waveform of the relaxation (magnitude, time and number of appearance of the peak, width (QT elongation)) [2]"
become unstable (have variations),,become unstable (have variations),has significant variations,,CC1(C)[C@@H](O)CC[C@]2(C)[C@H]3C(=O)C=C4[C@@H]5C[C@@](C)(C(=O)O)CC[C@]5(C)CC[C@@]4(C)[C@]3(C)CC[C@@H]12 [18-β-glycyrrhetinic acid],
,,does not have a significant impact,,do not have significant variations,"CC(=O)Oc1ccccc1C(=O)O [aspirin, acetylsalicylic acid]",

SMILES,motion amount absolute value at the peaks [1],waveform of the relaxation (the width of the pulsation) [1],"interval / timing of the pulsations (peak interval, rhythm of the pulsations) (FIG. 31)",variations of the height of the peak in the waveform of the contraction [2],"variations of the pulsations (overlapped waveforms of repeated pulsations) (FIG. 32, before vs after drug administration)","variations of the waveform of the relaxation (magnitude, time and number of appearance of the peak, width (QT elongation)) [2]"
CC(C)NCC(O)c1ccc(NS(C)(=O)=O)cc1 (racemic) [DL-sotalol],becomes unstable (has variations),changes (becomes unstable),the timing of the pulsation becomes unstable,also has significant variations,,has significant variations
